Patent US8691977B2, “Certain chemical entities, compositions, and methods” (Neupharma, Inc., priority 2010, dated 2014)

System: nitric oxide production
Assay: not given
Conditions: Jin et al., J Nat Prod 65: 89 (2002); read-out: IC50, inhibition of nitric oxide production; cited from earlier work

Row | Compound | IC50 [nM]
1 | N=C(N)NN [aminoguanidine] | 16000

System: A549 cells
Assay: Inhibition of cell growth in tumor cells (MTT assay)
Type: cell-based
Conditions: Homo sapiens, 72 h compound exposure
Experimental: Inhibition of cell growth by compounds was measured using MTT assay (Mosmann, T., Journal of Immunological Methods, 1983, 65, 55-63). Tumor cell lines were purchased from ATCC (American Type Culture Collection, Manassas, Va.). All cell lines were maintained in RPMI 1640 (Hyclone) supplemented with 10% fetal bovine serum (FBS, Hyclone), glutamine (2 mM, Hyclone), and antibiotics (penicillin 100 U/mL and streptomycin 50 μg/mL) at 37° C. in a humidified atmosphere of 5% CO2 in air. Taxol (positive control, Sigma) and compounds were dissolved in DMSO (Sigma), and the final concentration of DMSO in the medium was 1%. Tumor cells were plated in 96-well plates at densities from 4000 cells/well of a 96-well plate and allowed to adhere/grow for 24 h. They were then treated with various concentrations of drug for 72 h. 3-(4,5-Dimethylthiazol-2-yl)-2,5-diphenyltetrazolium bromide (MTT, Sigma) was used to determine the number of viable cells at the time of compound addition and the number of cells remaining after 72 h compound exposure. The number of cells remaining after 72 h was compared to the number of viable cells at the time of compound addition by measuring the absorbance at 570 nm, allowing for the calculation of growth inhibition.
All concentrations of compounds were tested in triplicate and controls were averaged over 4 wells. IC50 was calculated by plotting the concentration of compound vs the percentage of inhibition in treated wells using GraphPad Prism 5.

Row | Compound | IC50 [nM]
2 | CC1=C(O)C(=O)C=C2C1=CC=C1[C@@]2(C)CC[C@@]2(C)[C@@H]3C[C@](C)(CN(C)C)CC[C@]3(C)CC[C@]12C [(6bS,8aS,11R,12aR,12bS,14aR)-11-((dimethylamino)methyl)-3-hydroxy-4,6b,8a,11,12b,14a-hexamethyl-7,8,8a,9,10,11,12,12a,12b,13,14,14a-dodecahydropicen-2(6bH)-one] | 285
3 | CC1=C(O)C(=O)C=C2C1=CC=C1[C@@]2(C)CC[C@@]2(C)[C@@H]3C[C@](C)(CN)CC[C@]3(C)CC[C@]12C [(6bS,8aS,11R,12aR,12bS,14aR)-11-(aminomethyl)-3-hydroxy-4,6b,8a,11,12b,14a-hexamethyl-7,8,8a,9,10,11,12,12a,12b,13,14,14a-dodecahydropicen-2(6bH)-one] | 841
4 | CC1=C(O)C(=O)C=C2C1=CC=C1[C@@]2(C)CC[C@@]2(C)[C@@H]3C[C@](C)(CO)CC[C@]3(C)CC[C@]12C [(6bS,8aS,11R,12aR,12bS,14aR)-3-hydroxy-11-(hydroxymethyl)-4,6b,8a,11,12b,14a-hexamethyl-7,8,8a,9,10,11,12,12a,12b,13,14,14a-dodecahydropicen-2(6bH)-one] | 624
5 | COC(=O)OC[C@]1(C)CC[C@]2(C)CC[C@]3(C)C4=CC=C5C(=CC(=O)C(O)=C5C)[C@]4(C)CC[C@@]3(C)[C@@H]2C1 [((2R,4aS,6aS,12bR,14aS,14bR)-10-hydroxy-2,4-a,6a,9,12b,14a-hexamethyl-11-oxo-1,2,3,4,4a,5,6,6a,11,12b,13,14,14a,14b-tetradecahydropicen-2-yl)methyl methyl carbonate] | 393
6 | CC1=C(O)C(=O)C=C2C1=CC=C1[C@@]2(C)CC[C@@]2(C)[C@@H]3C[C@](C)(CN4CCCC4)CC[C@]3(C)CC[C@]12C [(6bS,8aS,11R,12aR,12bS,14aR)-3-hydroxy-4,6b,8a,11,12b,14a-hexamethyl-11-(pyrrolidin-1-ylmethyl)-7,8,8a,9,10,11,12,12a,12b,13,14,14a-dodecahydropicen-2(6bH)-one] | 498

Other lines, results leading:

Row | IC50 [nM] | Compound
7 | 159 | CC1=C(O)C(=O)C=C2C1=CC=C1[C@@]2(C)CC[C@@]2(C)[C@@H]3C[C@](C)(CNC(=O)CN(C)C)CC[C@]3(C)CC[C@]12C [2-(dimethylamino)-N-(((2R,4aS,6aS,12bR,14aS,14bR)-10-hydroxy-2,4a,6a,9,12b,14a-hexamethyl-11-oxo-1,2,3,4,4a,5,6,6a,11,12b,13,14,14a,14b-tetradecahydropicen-2-yl)methyl)acetamide]
8 | 358 | CC1=C(O)C(=O)C=C2C1=CC=C1[C@@]2(C)CC[C@@]2(C)[C@@H]3C[C@](C)(CNC(=O)N4CCOCC4)CC[C@]3(C)CC[C@]12C [N-(((2R,4aS,6aS,12bR,14aS,14bR)-10-hydroxy-2,4-a,6a,9,12b,14a-hexamethyl-11-oxo-1,2,3,4,4a,5,6,6a,11,12b,13,14,14a,14b-tetradecahydropicen-2-yl)methyl)morpholine-4-carboxamide]
9 | 523 | CC1=C(O)C(=O)C=C2C1=CC=C1[C@@]2(C)CC[C@@]2(C)[C@@H]3C[C@](C)(CN4CCOCC4)CC[C@]3(C)CC[C@]12C [(6bS,8aS,11R,12aR,12bS,14aR)-3-hydroxy-4,6b,8a,11,12b,14a-hexamethyl-11-(morpholinomethyl)-7,8,8a,9,10,11,12,12a,12b,13,14,14a-dodecahydropicen-2(6bH)-one]
10 | 737 | CC1=C(O)C(=O)C=C2C1=CC=C1[C@@]2(C)CC[C@@]2(C)[C@@H]3C[C@](C)(CNC(N)=O)CC[C@]3(C)CC[C@]12C [1-(((2R,4aS,6aS,12bR,14aS,14bR)-10-hydroxy-2,4-a,6a,9,12b,14a-hexamethyl-11-oxo-1,2,3,4,4a, 5,6,6a,11,12b,13,14,14a,14b-tetradecahydropicen-2-yl)methyl)urea]
11 | 246 | CC1=C(O)C(=O)C=C2C1=CC=C1[C@@]2(C)CC[C@@]2(C)[C@@H]3C[C@](C)(CNC(=O)N4CCN(C)CC4)CC[C@]3(C)CC[C@]12C [N-(((2R,4aS,6aS,12bR,14aS,14bR)-10-hydroxy-2,4-a,6a,9,12b,14a-hexamethyl-11-oxo-1,2,3,4,4a,5,6,6a,11,12b,13,14,14a,14b-tetradecahydropicen-2-yl)methyl)-4-methylpiperazine-1-carboxamide]
